The values below come from US7972611B2, “Fungus-induced inflammation and eosinophil degranulation” (Mayo Foundation for Medical Education and Research, priority 2005, dated 2011).

Read-outs that look alike come from different tables or passages of the source.

The subject of data set [1] is aspartate protease(s) in Alternaria extract. Nature of the data set: Inhibition of PAR-2 cleavage activity of Alternaria extract. It is filed as biochemical. The note with it: extract pretreated with inhibitor. The text has this:
(§1) FIG. 9. Effects of protease inhibitors on PAR-2 cleavage activity (Panel A) and EDN release activity (Panel B) of Alternaria extract. Alternaria extract, trypsin, or PMA was pretreated with pepstatin A agarose, control agarose, or APMSF, and added to the PAR-2 peptide substrate (Panel A) or eosinophils (Panel B). In Panel B, *, p<0.05 compared to no inhibitors, n=4.
(§2) A fluorescent quenched peptide substrate (Abz-SKGRSLIGK(Dnp)D) (SEQ ID NO:37), which spans the trypsin-cleavage site (between R and S) of PAR-2 was synthesized, and used it in an in vitro assay for PAR-2 cleavage and activation. […] Alternaria's activity was abolished when aspartate protease(s) was removed from the extract by pepstatin A agarose (FIG. 9); pepstatin A is a highly specific inhibitor for aspartate protease. […] Thus, an aspartate protease(s) in Alternaria extract, but not a serine protease(s), may be involved in the activation of eosinophils through PAR-2. this observation was confirmed by using other aspartate protease inhibitors, including alkalo-thermophilic bacillus inhibitor (ATBI), nelfinavir, and ritonavir.

Data set [2] has as its system trypsin. Nature of the data set: Inhibition of trypsin cleavage of PAR-2 peptide substrate. The data set is classed as biochemical.
Source text: as §1, §2

Data set [3] deals with eosinophils. The data set is classed as cell-based, human. To be noted: for eosinophil degranulation (EDN release) induced by Alternaria extract: 3 hours at 37° C. On the procedure: FIG. 9. […] Alternaria extract, trypsin, or PMA was pretreated with pepstatin A agarose, control agarose, or APMSF, and added to the PAR-2 peptide substrate (Panel A) or eosinophils (Panel B).
(§3) To monitor eosinophil function in response to extracts from Alternaria, degranulation of human eosinophils was measured by quantitating released eosinophil-derived neurotoxin (EDN) and/or MBP. In brief, freshly isolated eosinophils were suspended in HBSS with 25 mM HEPES and 0.01% gelatin at 5×10^5 cells/mL. Eosinophils and stimuli were incubated in 96-well tissue culture plates for 3 hours at 37° C. and 5% CO^2. Cell-free supernatants were stored at −20° C. A specific RIA quantitated eosinophil degranulation by measuring the concentration of EDN in the supernatants.

The subject of data set [4] is patients with CRS. Nature of the data set: Open-label pilot trial of intranasal amphotericin B in CRS patients. On the procedure:
To examine the clinical significance of fungal colonization in CRS, two clinical trials were performed to examine the efficacy of anti-fungal agents. It was hypothesized that anti-fungal agents will reduce the fungal burden in the upper airways, resulting in less antigenic stimulation of immune cells, less airway inflammation, and improved clinical outcomes. […] This prospective, open-label trial used amphotericin B as a medical treatment in 51 randomly selected CRS patients. The antifungal was applied intranasally using 20 mL of a 100 μg/mL solution twice daily for a mean of 11 months (minimum of 3 months).

For data set [5], the system named is patients with CRS. Nature of the data set: Randomized, placebo-controlled, double-blind trial of intranasal amphotericin B in CRS patients. The data set is classed as in vivo, human. To be noted: 6 months. The method, then:
Second, to address the efficacy of intranasal antifungal agents more objectively, a randomized, placebo-controlled, double-blind, single center trial was performed to treat 30 randomly selected CRS patients. Patients instilled 20 mL amphotericin B (250 μg/mL) or placebo to each nostril twice daily for 6 months. Twenty-four patients completed the 6 months of treatment. […] The changes in the endoscopic scores improved in the amphotericin B group compared to placebo (p=0.038). […] Some patients responded well to the treatment, but others not as well. Thus, fungi may be important in the development of CRS in certain patients.

Data set [6] concerns BEAS-2B cells. Nature of the data set: Cytokine production by BEAS-2B airway epithelial cells. It is filed as cell-based, human. On the procedure:
FIG. 10. Effects of fungi on IL-6 production by BEAS-2B cells. BEAS-2B cells were incubated with culture extracts of various fungi for 24 hours. IL-6 concentrations in the supernatants were measured by ELISA. *, p<0.05 compared to medium alone, n=3.
FIG. 11. Effects of an aspartate protease inhibitor, ritonavir, on IL-8 production by BEAS-2B cells. Alternaria extract or TNF-α was pretreated with ritonavir and added to BEAS-2B cells. IL-8 concentrations in the supernatants were measured after 24 hours. Data are normalized to the values without ritonavir as 100%. *, p<0.05 compared to no inhibitor, n=4.
Eosinophils may be the only cell that can recognize Alternaria. […] BEAS-2B stimulated with Alternaria also produced other pro-inflammatory factors such as IL-8 and GM-CSF. This Alternaria-induced IL-6 production was inhibited by ATBI, nelfinavir, ritonavir or pepstatin A-agarose treatment of Alternaria extract by about 60% to 90%; ritonavir results are shown in FIG. 11. In contrast, TNF-α-induced IL-6 production was not affected by these treatments. […] Thus, through its aspartate protease activity, Alternaria may activate airway epithelial cells; this activation is partially mediated by PAR-2.

In data set [7] the target is T1, PAR-2 (Homo sapiens, UniProt P55085).
T1 construct: endogenous in cells; host or cells: isolated human blood eosinophils
T1 sequence (P55085 26-397): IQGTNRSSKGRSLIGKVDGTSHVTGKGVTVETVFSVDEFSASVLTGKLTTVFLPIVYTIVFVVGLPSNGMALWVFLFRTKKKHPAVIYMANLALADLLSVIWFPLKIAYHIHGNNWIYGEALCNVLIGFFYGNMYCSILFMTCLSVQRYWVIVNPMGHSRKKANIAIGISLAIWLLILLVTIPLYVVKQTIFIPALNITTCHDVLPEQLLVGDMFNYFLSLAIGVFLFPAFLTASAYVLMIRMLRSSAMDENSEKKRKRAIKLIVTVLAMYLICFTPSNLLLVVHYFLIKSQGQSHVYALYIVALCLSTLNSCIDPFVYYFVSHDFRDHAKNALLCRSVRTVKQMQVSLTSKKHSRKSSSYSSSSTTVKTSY
Description: Eosinophil calcium response to Alternaria extract after preincubation with PAR-2 peptides. The data set is classed as cell-based. The note with it: preincubation with peptide, 100 μM. The method, then: FIG. 8. Desensitization of eosinophil calcium response (Panel A) and EDN release (Panel B) by PAR-2 peptides. Cells were preincubated with PAR-2 agonist (SLIGKV; SEQ ID NO:38), PAR-2 antagonist (LSIGKV; SEQ ID NO:35) or control peptide (GLIVKS; SEQ ID NO:36) (all at 100 μM) before stimulation with Alternaria extract (Panel A) or with Alternaria extract, PAF or PMA (Panel B).
The majority of previous studies in anti-fungal immune responses used the following models: animal infection in in vivo systems (e.g., Candida albicans, Aspergillus fumigatus), or entire fungal hyphae or conidia (e.g., C. albicans, A. fumigatus), a yeast model (e.g., zymosan), and isolated fungal carbohydrate macromolecules (e.g., β-glucan, mannan) in in vitro systems. These studies pointed to roles for TLRs, in particular TLR2 and TLR4, and to other pattern recognition receptors that immune cells, such as macrophages and neutrophils, use to recognize fungi. Because eosinophils express little TLR2 or TLR4 and the active component(s) in Alternaria extract was a heat-labile molecule(s) with an approximate 30-50 kDa molecular mass (FIG. 6), it was speculated that an Alternaria-derived protease(s) (not carbohydrates), interacting with eosinophil PAR-2, may be involved in the eosinophils' responses to Alternaria. Sine no specific small molecule inhibitor for PAR-2 is available, a desensitization approach was used. […] In contrast, degranulation induced by PAF or PMA was not affected by the LSIGKV (SEQ ID NP:35) peptide. Thus, PAR-2 is likely involved in the eosinophils' calcium and degranulation responses to Alternaria extract.

The subject of data set [8] is PBMCs. Nature of the data set: PBMC CD4+ T cell proliferation by CFSE labeling. It is filed as cell-based, human. The note with it: side-by-side experiment, day 7.
Data set [9] deals with human eosinophils. Description: Eosinophil degranulation (EDN release) and activation by fungal extracts and proteins. It is filed as cell-based. The note with it: through PAR-2. On the procedure:
FIG. 5. Effects of fungi on eosinophil degranulation. Eosinophils were incubated with culture extracts of various fungi for 3 hours.
FIG. 21. Effects of Trichoderma xylanase on eosinophil degranulation (Panel A). Effects of Trichoderma xylanase on IL-5 production in mouse airways (Panel B). Panel A: Eosinophils were incubated with various concentrations of Trichoderma xylanase for 3 hours. EDN concentrations in the supernatants were measured by RIA as an indicator of degranulation. Panel B: Naive BALB/c mice were exposed intranasally to various doses of Trichoderma xylanase. After 12 hours, BAL fluids were collected and the concentrations of IL-5 were measured by ELISA. Mean±range, n=2.
FIG. 25. Partial characterization of Alternaria extract. A, Before incubation with eosinophils, aliquots of 100 μg/mL Alternaria and 10 ng/mL IL-5 were heated at 37, 56, or 100° C. for 30 min or were treated at 4° C. for 30 min. Eosinophils were incubated in duplicate with these treated stimuli for 3 hours at 37° C. […] The molecular weight calibration of the column is shown above the elution profile.
The following was performed to determine whether human eosinophils have an innate capacity to respond to environmental fungal organisms. Human eosinophils were incubated with extracts from common environmental airborne fungi.
as §3

Data set [10] deals with PAR-2 peptide substrate (Abz-SKGRSLIGK(Dnp)D). Nature of the data set: Fluorescent quenched PAR-2 peptide substrate cleavage assay. The data set is classed as biochemical.
Source text: as §1, §2

Turning to `N=C(N)c1ccc(CS(=O)(=O)F)cc1` [APMSF], in data set [1], the “PAR-2 peptide cleavage activity of Alternaria extract” value is reported as “insensitive”. Moreover, the “PAR-2 peptide cleavage activity of trypsin” value in data set [2] is “inhibited the activity”. Also, the “eosinophil degranulation (EDN release) induced by Alternaria extract” value in data set [3] is given as “not”; in data set [3] (listed as APSF), “did not inhibit”.
As for `C[C@@H]1[C@H](O)[C@@H](C)/C=C/C=C/C=C/C=C/C=C/C=C/C=C/[C@H](O[C@@H]2O[C@H](C)[C@@H](O)[C@H](N)[C@@H]2O)C[C@@H]2O[C@](O)(C[C@@H](O)C[C@@H](O)[C@H](O)CC[C@@H](O)C[C@@H](O)CC(=O)O[C@H]1C)C[C@H](O)[C@H]2C(=O)O` [amphotericin B], the “no effect seen, patients” value in data set [4] (13/51 patients) was determined as 25%. In addition, the “endoscopically disease free, patients” value in data set [4] (18/51 patients) is on record as 35%. In addition, the “endoscopically improved by at least one stage, patients” value in data set [4] (additional 20/51 patients) was 39%. For the same molecule, in [4] (intranasal 20 mL of 100 μg/mL twice daily, mean 11 months, 38/51 patients), the “improvement of sinusitis symptoms, patients” value is recorded as 75%. The “inflammatory mucosal thickening on CT scans pre- and post-treatment” value in data set [4] (n=12) was “significant reduction”. Besides, in [4] (open-label pilot trial), the “safety of direct muco-administration” value is on record as “safe”. Also, the “change in intranasal mucus levels of EDN” value in [5] (increase in placebo group, p=0.046) is “a reduction”. Also, the “changes in endoscopic scores compared to placebo” value in [5] (p=0.038) is listed as “improved”. Also, in [5] (20 mL 250 μg/mL each nostril twice daily, p=0.030), the “mucosal thickening on CT scans compared to placebo” value is recorded as “reduced”.
In the case of `Cc1c(O)cccc1C(=O)N[C@@H](CSc1ccccc1)[C@H](O)CN1C[C@H]2CCCC[C@H]2C[C@H]1C(=O)NC(C)(C)C` [nelfinavir], the “TNF-α-induced IL-6 production by BEAS-2B cells” value (from here on “TNF-α-induced IL-6 production”) in data set [6] is listed as “not affected”. For the same molecule, in data set [3], the “eosinophil degranulation (EDN release) induced by Alternaria extract” value is “confirmed”.
In the case of `CC(C)c1nc(CN(C)C(=O)N[C@H](C(=O)N[C@@H](Cc2ccccc2)C[C@H](O)[C@H](Cc2ccccc2)NC(=O)OCc2cncs2)C(C)C)cs1` [ritonavir], the “TNF-α-induced IL-6 production” value in data set [6] is listed as “not affected”. Moreover, the “eosinophil degranulation (EDN release) induced by Alternaria extract” value in data set [3] was “confirmed”.
Turning to “GLIVKS (Synthetically generated oligonucleotide) [control scramble peptide]”, in data set [7], the “eosinophils' calcium response to Alternaria extract” value (“eosinophils' calcium response” below) was “showed no effects”.
Turning to “LSIGKV (Synthetically generated oligonucleotide) [PAR-2 antagonist]”, in data set [7], the “eosinophils' calcium response” value is listed as “also inhibited”. Besides, the “inhibition of Alternaria-induced IL-6 production by BEAS-2B cells” value in [6] (treatment of Alternaria extract or PAR-2 antagonist) is approximately 40%. Also, the “eosinophil degranulation (EDN release) induced by Alternaria extract” value in data set [3] was “significantly and specifically inhibited”; in data set [3] (listed as PAR2-inhibitory peptide) it was “inhibited”. For the same molecule, in data set [3] (peptide 100 μM), the “eosinophil degranulation induced by PAF” value was “not affected”. In data set [3] (peptide 100 μM), the “eosinophil degranulation induced by PMA” value was “not affected”.
Take “SLIGKV (Synthetically generated oligonucleotide) [PAR-2 agonistic peptide]”: the “eosinophils' calcium response” value in [7] is on record as “significantly inhibited”.
For the molecule “alkalo-thermophilic bacillus inhibitor [ATBI]”, the “TNF-α-induced IL-6 production” value in data set [6] was “not affected”. Moreover, in data set [3], the “eosinophil degranulation (EDN release) induced by Alternaria extract” value is “confirmed”.
For the molecule tetanus toxoid: tetanus toxoid, the figures for the “CFSElow CD4+ cells” value in data set [8] (CRS patient) and in data set [8] (normal individual) were 43.2% and 47.9%, respectively.

B1: trypsin: serine protease, positive control (protein, UniProt P00760 24-246, looked up)
Serine protease 1: IVGGYTCGANTVPYQVSLNSGYHFCGGSLINSQWVVSAAHCYKSGIQVRLGEDNINVVEGNEQFISASKSIVHPSYNSNTLNNDIMLIKLKSAASLNSRVASISLPTSCASAGTQCLISGWGNTKSSGTSYPDVLKCLKAPILSDSSCKSAYPGQITSNMFCAGYLEGGKDSCQGDSGGPVVCSGKLQGIVSWGSGCAQKNKPGVYTKVCNYVSWIKQTIASN
On to B1, for which, in [9], the “activation of human eosinophils by proteases” value is on record as “activated”. In addition, the “cleavage of PAR-2 peptide substrate” value in data set [10] is given as “clearly cleaved”.
